Source: patent US7163923B2, “Peptide deformylase activated prodrugs” (Celmed Oncology (USA), Inc., priority 2001, dated 2007)
Values after ≈ are worked out from the molar mass of the structure shown.

System: E. faecalis
Assay: MIC susceptibility testing (modified NCCLS, 384-well)
Format: cell-based
Conditions: Enterococcus faecalis
Description: The NCCLS (National Committee for Clinical Laboratory Standards), method to determine MIC's of antimicrobial compounds is modified for high-throughput screening. All stocks of tested compounds are prepared in either water or in DMSO depending on solubility. At the highest concentration, DMSO content should not exceed 0.5%. Briefly, twenty 2-fold serial dilutions of test compounds from the highest concentration are made in a 384-well microtiter plate. […] Bacterial growth is determined by the increase of optical density at 600 nm using a microplate reader (Tecan SpectraFluor Plus).

## CSCCC(NC=O)C(=O)NC(CC(C)C)C(=O)Oc1cc(Cl)ccc1Oc1ccc(Cl)cc1Cl (stereo not shown) [NB2046, 2-(2-formylamino-4-methylsulfanyl-butyrylamino)-4-methyl-pentanoic acid 5-chloro-2-(2,4-dichloro-phenoxy)-phenyl ester]
ATCC49757, E. faecalis ATCC 49757, Exp. #1, Table 4
  MIC: 64 µg/mL (≈ 114 µM)
ATCC49757, E. faecalis ATCC 49757, Exp. #2, Table 4
  MIC: 32 µg/mL (≈ 56.9 µM)
ATCC700802, E. faecalis ATCC 700802, Exp. #1, Table 4
  MIC: 32 µg/mL (≈ 56.9 µM)
ATCC700802, E. faecalis ATCC 700802, Exp. #2, Table 4
  MIC: 32 µg/mL (≈ 56.9 µM)
